Like-named read-outs stand apart in the source and are kept apart here.
Columns and labels:
[1] = in vitro; conditions: human, 20% fecal homogenate (supernatant), anaerobic, pH 6.8
[2] = system: NK cells; assay: NK cell based assay (IL-23/IL-18-induced IFNγ, Quantikine ELISA); conditions: human primary NK cells, IL-23 at EC50 to EC75 + IL-18 10 ng/mL, IFNγ after 20 to 24 hours
Summary of the method: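 Human NK cells were negatively selected from healthy-donor peripheral blood and expanded for 7 days in FBS-supplemented RPMI 1640 with IL-2 (25 ng/mL). IFNγ in the supernatant was quantified by ELISA after 20 to 24 hours.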

[3] = target: T1, IL-23R (Homo sapiens, UniProt Q5VWK5); assay: DB cells IL23R pSTAT3 cell assay (pStat3 HTRF); type: cell-based
T1 sequence (Q5VWK5 24-629): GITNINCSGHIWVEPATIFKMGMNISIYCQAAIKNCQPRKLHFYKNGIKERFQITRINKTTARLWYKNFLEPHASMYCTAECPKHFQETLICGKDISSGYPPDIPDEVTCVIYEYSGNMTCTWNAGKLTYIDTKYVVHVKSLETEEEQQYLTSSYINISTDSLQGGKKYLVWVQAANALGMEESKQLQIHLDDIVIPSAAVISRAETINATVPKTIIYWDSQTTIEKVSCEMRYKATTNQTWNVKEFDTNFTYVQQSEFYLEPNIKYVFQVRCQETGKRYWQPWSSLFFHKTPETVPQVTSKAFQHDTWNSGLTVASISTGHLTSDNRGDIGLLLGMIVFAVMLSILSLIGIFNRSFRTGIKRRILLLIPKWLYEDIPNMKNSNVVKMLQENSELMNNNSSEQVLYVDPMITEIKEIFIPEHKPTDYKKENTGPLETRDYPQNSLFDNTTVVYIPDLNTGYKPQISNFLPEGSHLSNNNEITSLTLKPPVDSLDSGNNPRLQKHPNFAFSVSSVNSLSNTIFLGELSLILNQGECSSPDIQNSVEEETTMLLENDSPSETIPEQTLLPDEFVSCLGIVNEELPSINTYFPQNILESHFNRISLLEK
Summary of the method: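 DB cells (5×10E5/well, RPMI-1640 + 10% FBS) stimulated with 0.5 nM final IL-23 plus serially diluted test peptides for 30 min at 37 °C, 5% CO2. Phospho-STAT3 (Tyr705) in lysates measured by HTRF using a two-plate protocol.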

[4] = in vitro; conditions: both, SD, rat, plasma (EDTA)
[5] = in vitro; conditions: cynomolgus monkey, 20% fecal homogenate (supernatant), anaerobic, pH 6.8
[6] = Stability in simulated gastric fluid (SGF); type: in vitro ADME; conditions: pig (pepsin), simulated gastric fluid (SGF) with porcine pepsin, pH=2, 37° C., 20 μM peptide, read-out: SGF t½ (converted)
Description: SGF was prepared by adding 20 mg NaCl, 32 mg porcine pepsin (MP Biochemicals, catalog 02102599), and 70 μl HCl to 10 ml water (final pH=2). Aliquots of SGF (0.5 ml each) were pre-warmed at 37° C. To start the reaction, 1 μl of peptide stock solution (10 mM in DMSO) was added to 0.5 ml SGF and thoroughly mixed such that the final peptide concentration was 20 μM. The reactions were incubated at 37° C. with gentle shaking. At each time point (0, 15, 30, 60 min) 50 μl aliquots were removed and added to 200 ul acetonitrile containing 0.1% formic acid to quench the reaction. Samples are stored at 4° C. until the end of the experiment and centrifuged at 10,000 rpm for 5 minutes. Aliquots of the supernatant were removed, diluted 1:1 into distilled water containing internal standard, and analyzed by LCMS/MS. Percent remaining at each timepoint was calculated based on the peak area response ratio of test to compound to internal standard. Time 0 was set to 100%, and all later timepoints were calculated relative to time 0. Half-lives were calculated by fitting to a first-order exponential decay equation using GraphPad.

[7] = in vitro; type: in vitro ADME; design: half-life: dose or concentration left out as unconfirmed; conditions: pH 6.8, 37° C., § matrix is 100 fold dilution of standard SIF concentration; for SIF t½: simulated intestinal fluid, pancreatin
Description: SIF was prepared by adding 6.8 g of monobasic potassium phosphate and 10.0 g of pancreatin to 1.0 L of water. After dissolution, the pH was adjusted to 6.8 using NaOH. DMSO stocks (2 mM) were first prepared for the test compounds. Aliquots of the DMSO solutions were dosed into 6 individual tubes, each containing 0.5 mL of SIF, which is pre-warmed to 37° C. The final test compound concentration was 20 M. The vials were kept in a benchtop Thermomixer® for the duration of the experiment. At each timepoint (0, 5, 10, 20, 40, 60, or 360 minutes or 24 hours), 1.0 mL of acetonitrile containing 1% formic acid was added to one vial to terminate the reaction. Samples were stored at 4° C. until the end of the experiment. After the final timepoint is sampled, the tubes were mixed and then centrifuged at 3,000 rpm for 10 minutes. Aliquots of the supernatant were removed, diluted 1:1 into distilled water containing internal standard, and analyzed by LCMS/MS. Percent remaining at each timepoint was calculated based on the peak area response ratio of test to compound to internal standard. Time 0 was set to 100%, and all later timepoints were calculated relative to time 0. Half-lives were calculated by fitting to a first-order exponential decay equation using Graphpad.

[8] = Table E3, DB cells, IL-23 0.5 nM, 30 minutes at 37° C., read-out: pStat3 HTRF (IC50)

Row | Compound | half-life at 20 μM [1] [h] | IC50 [2] [nM] | IC50 [3, 8] [nM] | half-life at 20 μM [4] [h] | half-life at 20 μM [5] [h] | half-life at 20 μM [6] [h] | IC50 [3] [nM] | SIF t½ [7] [h] | half-life ([7]; simulated intestinal fluid (SIF) with pancreatin, read-out: SIF t½ (converted)) [h]
1 | CC(=O)NCCCC[C@H](NC(=O)[C@](C)(CC(C)C)NC(=O)[C@H](Cc1ccc2ccccc2c1)NC(=O)[C@H](Cc1ccc(OCCN)cc1)NC(=O)[C@H]1NC(=O)[C@H](CCC(N)=O)NC(=O)[C@H](Cc2c[nH]c3c(C)cccc23)NC(=O)[C@H]([C@@H](C)O)NC(=O)[C@H](CC(N)=O)NC(=O)[C@@H](NC(C)=O)C(C)(C)SSC1(C)C)C(=O)N[C@@H](CO)C(=O)NCCC(N)=O [compound 221] | > 24 | < 10 | 1 to 10 | 2 | > 24 | 9 | – | – | –
2 | CC(=O)NCCCC[C@H](NC(=O)[C@](C)(CC(C)C)NC(=O)[C@H](Cc1ccc2ccccc2c1)NC(=O)[C@H](Cc1ccc(OCCN)cc1)NC(=O)[C@H]1NC(=O)[C@H](CCC(N)=O)NC(=O)[C@H](Cc2c[nH]c3cc(C)ccc23)NC(=O)[C@H]([C@@H](C)O)NC(=O)[C@H](CC(N)=O)NC(=O)[C@@H](NC(C)=O)C(C)(C)SSC1(C)C)C(=O)N[C@@H](CC(N)=O)C(=O)N[C@@H](CC(N)=O)C(N)=O [compound 5] | 6 | – | – | – | 2 | 12 | 1 to 10 | 24 | –
3 | CC(=O)NCCCC[C@H](NC(=O)C1(NC(=O)[C@H](Cc2ccc3ccccc3c2)NC(=O)[C@H](Cc2ccc(OCCN)cc2)NC(=O)[C@@H]2CSCC[C@H](NC(=O)[C@@H](CCCNC(=N)N)NC(C)=O)C(=O)N[C@@H](CCC(N)=O)C(=O)N[C@@H]([C@@H](C)O)C(=O)N[C@@H](Cc3c[nH]c4c(C)cccc34)C(=O)N[C@@H](CCC(N)=O)C(=O)N2)CCOCC1)C(=O)N[C@@H](CC(N)=O)C(=O)N[C@@H](CC(N)=O)C(N)=O [compound 29] | – | – | – | 3 | – | 1 | < 1 | – | 21
4 | CC(=O)N[C@H]1CCSC[C@@H](C(=O)N[C@@H](Cc2ccc(OCCN)cc2)C(=O)N[C@@H](Cc2ccc3ccccc3c2)C(=O)NC2(C(=O)N[C@@H](CCC(=O)O)C(=O)N[C@@H](CC(N)=O)C(=O)N[C@@H](CC(N)=O)C(N)=O)CCOCC2)NC(=O)[C@H](CCC(N)=O)NC(=O)[C@H](Cc2c[nH]c3c(C)cccc23)NC(=O)[C@H]([C@@H](C)O)NC(=O)[C@H](CCC(N)=O)NC1=O [compound 28] | 1 | – | – | – | 5 | 3 | < 1 | 24 | –
5 | COc1cccc2[nH]cc(C[C@@H]3NC(=O)[C@H]([C@@H](C)O)NC(=O)[C@H](CC(N)=O)NC(=O)[C@@H](NC(C)=O)C(C)(C)SSC(C)(C)[C@@H](C(=O)N[C@@H](Cc4ccc(OCCN)cc4)C(=O)N[C@@H](Cc4ccc5ccccc5c4)C(=O)N[C@@](C)(CC(C)C)C(=O)N[C@@H](CCCCNC(C)=O)C(=O)N[C@@H](CC(N)=O)C(=O)N[C@@H](CC(N)=O)C(N)=O)NC(=O)[C@H](CCC(N)=O)NC3=O)c12 [compound 4] | 6 | – | – | – | 2 | 9 | 1 to 10 | 24 | –
6 | CC(=O)NCCCC[C@H](NC(=O)[C@](C)(CC(C)C)NC(=O)[C@H](Cc1ccc2ccccc2c1)NC(=O)[C@H](Cc1ccc(OCCN)cc1)NC(=O)[C@H]1NC(=O)[C@H](CCC(N)=O)NC(=O)[C@H](Cc2c[nH]c3c(C)cccc23)NC(=O)[C@H]([C@@H](C)O)NC(=O)[C@H](CC(N)=O)NC(=O)[C@@H](NC(C)=O)C(C)(C)SSC1(C)C)C(=O)N[C@@H](CC(N)=O)C(=O)NCCC(N)=O [compound 201] | > 24 | < 10 | < 1 | < 0.3 | 19 | 14 | – | – | –

Source: patent US20260116921A1, “PEPTIDE INHIBITORS OF INTERLEUKIN-23 RECEPTOR AND THEIR USE TO TREAT INFLAMMATORY DISEASES” (priority 2018, published 2026)
